Assay results as given in patent publication US8466195B2, “Methods and compositions for treating complications of diabetes and vascular diseases using flavones” (Salk Institute for Biological Studies, priority 2009, dated 2013).

What was measured:
Type in all cases: cell-based
HT22 cells = assay: Oxidative glutamate toxicity (MTT cell viability); conditions: Mus musculus, HT-22; 5 mM glutamate, 24 hours, MTT; read-out: EC50 oxid. glut. tox.
Experimental: Cell viability was determined by a modified version of 3-(4,5-dimethylthiazol-2-yl)-2,5-diphenyl tetrazolium bromide (MTT) assay based on the standard procedure (Hansen M B et al. J. Immunol. Methods 119:203-210, 1989). Briefly, cells were seeded onto 96-well microtiter plates at a density of 5×10^3 cells per well. The next day, the medium was replaced with DMEM supplemented with 7.5% DFCS and the cells were treated with the different fisetin derivatives alone or in the presence of 5 mM glutamate. Twenty four hours later, the medium in each well was aspirated and replaced with fresh medium containing 2.5 μg/ml MTT. After 4 hours of incubation at 37° C., cells were solubilized with 100 μA of a solution containing 50% dimethylformamide and 20% SDS (pH 4.7). The absorbance at 570 nm was measured on the following day with a microplate reader (Molecular Devices). Results obtained from the MTT assay correlated directly with the extent of cell death as confirmed visually. Controls employing wells without cells were used to determine the effects of the agents upon the assay chemistry.
As shown in panel (A) of FIG. 3, HT22 cells were untreated (ct) or treated with 10 μM fisetin (fis) in the absence of presence of 5 mM glutamate for 24 hr and GSH was measured enzymatically and normalized to protein. As shown in panel (B) of FIG. 3, HT22 cells in 96-well plates were treated with 5 mM glutamate and the indicated concentrations of fisetin. MTT reduction was measured after 24 hr.

[1] = system: cells treated with 20 μM iodoacetic acid (IAA); assay: In vitro ischemia (iodoacetic acid, MTT cell viability); conditions: 20 μM IAA 2 h, MTT 20 h later
Experimental: Briefly, cells were seeded onto 96-well microtiter plates at a density of 5×10^3 cells per well. The next day, the medium was replaced with DMEM supplemented with 7.5% DFCS and the cells were treated with 20 μM iodoacetic acid (IAA) alone or in the presence of the different fisetin derivatives. After 2 h the medium in each well was aspirated and replaced with fresh medium without IAA but containing the fisetin derivatives. 20 h later, the medium in each well was aspirated and replaced with fresh medium containing 2.5 μg/ml MTT. After 4 h of incubation at 37° C., cells were solubilized with 100 μl of a solution containing 50% dimethylformamide and 20% SDS (pH 4.7). The absorbance at 570 nm was measured on the following day with a microplate reader (Molecular Devices). Results obtained from the MTT assay correlated directly with the extent of cell death as confirmed visually. Controls included compound alone to test for toxicity and compound with no cells to test for interference with the assay chemistry.

HT-22 nerve cells = HT-22 nerve cells exposed to glutamate: MG adducts and viability
Experimental: HT-22 nerve cells were exposed to 0.5 mM glutamate and Glo-1 expression monitored at 8 and 24 hrs. In panel (B) of FIG. 2, Fisetin is shown to prevent both cell death and protein glycation. HT-22 cells were exposed to 5 mM glutamate in the presence or absence of 2 μM fisetin. MG adducts were determined by Western blotting 8 hrs after glutamate exposure and viability after 24 hrs. Actin is at the bottom of the blot. In panel (C) of FIG. 2, the Glo-1 inhibitor s-p-bromobenzylglutathione […] is shown to potentiate cell death. HT-22 cells were exposed to 1 mM glutamate plus or minus 10 or 20 μM BBGD.

Q: How did the EC50 (HT22 cells) turn out when `O=c1c(O)c(-c2ccc(O)c(O)c2)oc2cc(O)ccc12` [drawing 10] was run?
A: < 10000 nM

Q: What about the EC50 [1] of the same compound?
A: > 1000 nM

Q: For `COc1cc2oc(-c3ccc(O)c(O)c3)cc(=O)c2cc1OC`, which EC50 (HT22 cells) is on record?
A: < 10000 nM

Q: And the EC50 [1]?
A: < 1000 nM

Q: For `COc1cc2oc(-c3ccc(O)c(O)c3)c(O)c(=O)c2cc1OC`, which EC50 (HT22 cells) is on record?
A: < 10000 nM

Q: What about the EC50 [1] of the same compound?
A: > 1000 nM

Q: How did the EC50 (HT22 cells) turn out when `COc1cccc(-c2oc3cc(OC)c(OC)cc3c(=O)c2O)c1` was run?
A: < 10000 nM

Q: What about the EC50 [1] of the same compound?
A: 1000 nM

Q: Which EC50 (HT22 cells) does the source give for `CCOc1ccc(-c2oc3cc(C)c(C)cc3c(=O)c2O)cc1OCC` here?
A: < 10000 nM

Q: And the EC50 [1]?
A: < 1000 nM

Q: With `CCOc1ccc(-c2cc(=O)c3cc(C)c(C)cc3o2)cc1OCC` as the compound, how does the EC50 [1] read?
A: > 1000 nM

Q: Which results are given for `CCOc1ccc(-c2oc3cc(OC)c(OC)cc3c(=O)c2O)cc1OCC`?
A: EC50 (HT22 cells): < 10000 nM; EC50 [1]: > 1000 nM

Q: What does the source list for `Cc1cc2oc(-c3ccc(O)c(O)c3)cc(=O)c2cc1C`?
A: EC50 (HT22 cells): < 10000 nM; EC50 [1]: < 1000 nM

Q: What does the source list for `O=c1c(O)c(-c2ccc(O)c(O)c2)oc2cc(O)c(O)cc12`?
A: EC50 (HT22 cells): < 10000 nM; EC50 [1]: > 1000 nM

Q: How did the EC50 (HT22 cells) turn out when `O=c1cc(-c2ccc(O)c(O)c2)oc2cc(O)c(O)cc12` was run?
A: > 10000 nM

Q: And the EC50 [1]?
A: > 1000 nM

Q: How did the EC50 (HT22 cells) turn out when `Cc1cc2oc(-c3ccc(O)c(O)c3)c(O)c(=O)c2cc1C` was run?
A: < 10000 nM

Q: And the EC50 [1]?
A: < 1000 nM

Q: `N[C@@H](CCC(=O)N[C@@H](CSCc1ccc(Br)cc1)C(=O)NCC(=O)O)C(=O)O` [BBGD, s-p-bromobenzylglutathione, reference compound] was tested. Which “toxicity in the absence of glutamate” value (HT-22 nerve cells; 20 μM BBGD, no glutamate) did it give?
A: only mildly toxic

Q: And the “cell death in the presence of glutamate” value (HT-22 nerve cells; 1 mM glutamate plus 10 or 20 μM BBGD)?
A: greatly potentiates cell death
